Each structure is given as a SMILES string.

The target of this experiment is Induced myeloid leukemia cell differentiation protein Mcl-1 (Homo sapiens) (UniProt Q07820). As to the kind of experiment: Mcl-1 Noxa peptide disruption concentration-response – biochemical, TR-FRET, dose response (AID 1417). Conditions: Mcl-1/Noxa peptide interaction, cell-free TR-FRET (terbium/rhodamine), 2 h; measured here: absolute IC50. On the technique in general: TR-FRET usually uses a lanthanide donor and a delayed reading to cut background.
Chain of Induced myeloid leukemia cell differentiation protein Mcl-1 (Homo sapiens) (Q07820 whole entry, looked up): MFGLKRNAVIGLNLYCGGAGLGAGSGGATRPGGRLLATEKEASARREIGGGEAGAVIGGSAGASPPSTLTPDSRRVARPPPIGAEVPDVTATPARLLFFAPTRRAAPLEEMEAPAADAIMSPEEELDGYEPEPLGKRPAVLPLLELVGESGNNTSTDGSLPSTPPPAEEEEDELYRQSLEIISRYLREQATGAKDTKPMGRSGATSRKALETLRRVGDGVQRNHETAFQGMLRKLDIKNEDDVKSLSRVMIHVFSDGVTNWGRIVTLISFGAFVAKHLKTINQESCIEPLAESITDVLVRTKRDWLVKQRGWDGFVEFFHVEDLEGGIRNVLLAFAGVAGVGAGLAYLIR
What is called IC50 is the point on the concentration scale where inhibition reaches its midpoint. The low end stands for higher potency, the high end for lower potency. Molecule `O=C(Nc1ccc2nc(-c3ccc4nc[nH]c4c3)[nH]c2c1)c1cccs1` returned a half-inhibitory concentration (IC50) of 2.7 µM.

In turn, `O=C(NCc1ccco1)c1c2c(nc3ccccc13)CCC2` showed an IC50 of 3.96 µM.

`CNc1sc(C(=O)c2ccc(F)cc2)c(N)c1-c1nc2ccccc2s1` yielded a 50% inhibitory concentration (IC50) of 2.09 µM.

Regarding `COc1cnn(-c2ccc(Br)cc2)c(=O)c1SCc1ccccc1`, the half-inhibitory concentration (IC50) was over 54 µM.

`Oc1ccc(-c2cn3c(n2)SCC3)cc1O` showed an IC50 of 1.94 µM.

For `CCN(c1ccc(NC(=O)CCNC(=O)c2ccco2)cc1)C(C)C`, the IC50 is over 54 µM.

In turn, `COc1ccc(N2CCC(CNC(=O)Nc3ccccc3)C2)cc1` (configuration not stated) had an IC50 of under 0.4 µM.

`CN(C)c1ccc(N=c2sc3ccccc3n2C)cc1` gave an IC50 of under 0.4 µM.

On to `O=C(Nc1ccc(Cl)cc1)Nc1nnc(/C=C/c2ccccc2)s1`, for which the IC50 was 4.06 µM.

Consider `CCNc1ccc(Br)cc(C(=O)/C=C/c2ccc(Cl)cc2Cl)c1=O`, for which the IC50 turned out to be 4.19 µM.

With `CCc1ccc(S(=O)(=O)/N=C2/C=C(Sc3ncn[nH]3)C(=O)c3ccccc32)cc1`, the IC50 is under 0.4 µM.

`COc1cnn(-c2ccccc2)c(=O)c1SCc1ccc(Cl)cc1Cl` displayed an IC50 of over 54 µM.

Turning to `Oc1ccc(/C=N/Nc2ccnc3cc(Cl)ccc23)c(O)c1`, the IC50 was under 0.4 µM.

`O=C(NN1C(=O)/C(=C/C=C/c2ccco2)SC1=S)c1ccncc1` gave an IC50 of 2.23 µM.

In turn, `O=C(Nc1nc(-c2ccco2)c(-c2ccco2)s1)C1CC(=O)N(c2ccc3c(c2)OCCO3)C1` (configuration not stated) showed an IC50 of 5.49 µM.

`O=C(O)c1cc(N2N=C(C(F)(F)F)/C(=C/C=C/c3ccco3)C2=O)ccc1Cl` gave an IC50 of under 0.4 µM.

`COc1ccc(C(=O)c2sc3nc(-c4ccccc4)ccc3c2N)cc1OC` yielded a 50% inhibitory concentration (IC50) of over 54 µM.

`Cc1nnc(Sc2cc(NCCCO)c([N+](=O)[O-])c3nonc23)s1` showed an IC50 of 1.05 µM.

In the case of `FC(F)(F)C1=CC(c2ccccc2)=NCCN1`, the IC50 is over 54 µM.

In turn, `CC(C)c1ccc(Nc2nnc(SCC(=O)c3nnc(-c4ccccc4)o3)s2)cc1` displayed a half-maximal inhibitory concentration (IC50) of 1.92 µM.

Take `Cc1ccc(Cn2c(=N)c(C(=O)NCc3ccco3)cc3c(=O)n4ccccc4nc32)cc1`: the IC50 was found to be 3.6 µM.

In turn, `O=C(Nc1ccc(Cl)cc1)N1CCc2[nH]c3ccccc3c2C1` registered an IC50 of over 54 µM.

On to `COc1cc(/C=C2\SC(=S)N(CC(=O)Nc3ccc(O)cc3)C2=O)cc(OC)c1OC`, for which the IC50 was under 0.4 µM.

With `COc1cc(/C=C2\CC/C(=C\c3cc(OC)c(O)c(OC)c3)C2=O)cc(OC)c1O`, the IC50 is under 0.4 µM.

Turning to `O=C(Nc1ccccc1)c1ccc2nc(-c3ccco3)c(-c3ccco3)nc2c1`, the IC50 was 3.83 µM.

Consider `COc1cc(/C=N/NC(=O)C2c3ccccc3Oc3ccccc32)ccc1O`, for which the IC50 was 6.68 µM.

With `Cc1ccc(/C=C/C(=O)NCc2ccccn2)o1`, the IC50 was determined as 4.93 µM.

As for `O=C(Nc1cccc(Cl)c1)c1cc(N=Nc2ccc([N+](=O)[O-])cc2Cl)ccc1O`, the IC50 was found to be 1.56 µM.

`CCN(CCO)c1nc(SC)nc2c1sc1nc(-c3ccco3)c3c(c12)CCC3` registered an IC50 of under 0.4 µM.

`CC(/C=N\Nc1nnc2c(n1)[nH]c1c(C)cccc12)=C\c1ccco1` came in with an IC50 of 3.57 µM.

In turn, `O=C1c2cccc3cc([N+](=O)[O-])cc(c23)C(=O)N1/N=C/c1ccc(O)cc1O` showed an IC50 of 1.52 µM.

On to `CN(C)c1ccc(NC(=O)c2cn(-c3ccccc3)nc2-c2cccs2)cc1`, for which the half-inhibitory concentration (IC50) is over 54 µM.

`COc1cc(/C=C2\SC(=S)NC2=O)ccc1OS(=O)(=O)c1ccccc1` yielded an IC50 of 1.97 µM.

In turn, `O=C1NC(=O)N(Cc2ccco2)C(=O)/C1=C/c1ccc(-c2cccc([N+](=O)[O-])c2)o1` gave an IC50 of 3.28 µM.

With `Cc1ccc(OCC(=O)Nc2ccc(N3CCCC3)cc2)cc1C`, the half-inhibitory concentration (IC50) stood at 7.07 µM.

`c1ccc(Nc2cccc(Nc3ccccc3)c2)cc1` registered an IC50 of over 54 µM.

For the molecule `CC(C)Cn1c(N)c(C(=O)COC(=O)c2cc(-c3ccco3)nc3ccccc23)c(=O)n(C)c1=O`, the IC50 came to 1.45 µM.

In turn, `O=c1oc2ccccc2cc1-c1csc(Nc2ccc(O)cc2)n1` had an IC50 of 0.716 µM.

Turning to `Cn1cc(C(=O)N/N=C/c2ccc([N+](=O)[O-])cc2)c2ccccc21`, the IC50 came to 3.04 µM.

Molecule `CC(=O)c1ccc(NC(=O)CSc2ccsc2[N+](=O)[O-])cc1` had a half-inhibitory concentration (IC50) of over 54 µM.

Take `CCC(=O)Oc1ccc2c(=O)c(-c3ccc4ccccc4n3)c(CC)oc2c1C`: the IC50 was over 54 µM.

In turn, `O=C1/C(=C/C=C/c2ccco2)SC(=S)N1NS(=O)(=O)c1ccccc1` yielded an IC50 of 1.41 µM.

`CCc1ccc(NC(=O)N(CCN2CCOCC2)Cc2ccc3c(c2)CCCN3CC)cc1` displayed an IC50 of over 54 µM.

For the molecule `S=C(NNc1ccnc2cc(Cl)ccc12)Nc1ccc(Cl)cc1Cl`, the IC50 came out at 6.37 µM.

`Cc1c(O)ccc(/C=N/Nc2nc(-c3cccnc3)nc3ccccc23)c1O`: the IC50 is under 0.4 µM.

For `CCn1c(SCc2nc3sc(C(=O)O)c(C)c3c(=O)[nH]2)nc2ccccc21`, the IC50 amounted to 3.32 µM.

In the case of `CCOC(=O)C1CCN(c2nc(N)c3c(N)nc(SCC(=O)O)cc3c2C#N)CC1`, the IC50 is under 0.4 µM.

The record behind these values is PubChem BioAssay AID1417 (Emory University Molecular Libraries Screening Center, 2008).
